pKi: −log10 of the molar value. Where two headings read alike, the source gives them in different places.
Legend:
rat mGlu2 receptor = target: T1, rat mGlu2 receptor (Rattus norvegicus, UniProt P31421); assay: [3H]-LY354740 binding on mGlu2 transfected CHO cell membranes
T1 construct: expressed in transfected cells; vector pcD1mGR2
Description: [^3H]-LY354740 Binding on mGlu2 Transfected CHO Cell Membranes
Transfection and Cell Culture
The cells were maintained in Dulbecco's Modified Eagle medium with reduced L-glutamine (2 mM final concentration) and 10% dialysed foetal calf serum from Gibco BRL (Basel, Switzerland).
Cells, cultured as above, were harvested and washed three times with cold PBS and frozen at −80° C. The pellet was resuspended in cold 20 mM HEPES-NaOH buffer containing 10 mM EDTA (pH 7.4), and homogenised with a polytron (Kinematica, AG, Littau, Switzerland) for 10 s at 10 000 rpm. After centrifugation for 30 min. at 4° C., the pellet was washed once with the same buffer, and once with cold 20 mM HEPES-NaOH buffer containing 0.1 mM EDTA, (pH 7.4). Protein content was measured using the Pierce method (Socochim, Lausanne, Switzerland) using bovine serum albumin as standard.
After thawing, the membranes were resuspended in cold 50 mM Tris-HCl buffer containing 2 mM MgCl2 and 2 mM CaCl2, (pH 7) (binding buffer). The final concentration of the membranes in the assays was 25 μg protein/ml. Inhibition experiments were performed with membranes incubated with 10 nM [^3H]-LY354740 at room temperature, for 1 hour, in presence of various concentrations of the compound to be tested. Following the incubations, membranes were filtered onto Whatmann GF/C glass fiber filters and washed 5 times with cold binding buffer. Non specific binding was measured in the presence of 10 μM DCG IV. After transfer of the filters into plastic vials containing 10 ml of Ultima-gold scintillation fluid (Packard, Zürich, Switzerland), the radioactivity was measured by liquid scintillation in a Tri-Carb 2500 TR counter (Packard, Zürich, Switzerland).
The inhibition curves were fitted with a four parameter logistic equation giving IC50 values, and Hill coefficients.

[1] = inhibition of 10 nM [3H]-LY354740 binding, mGlu2 transfected CHO cell membranes, room temperature, 1 hour, read-out: Ki mGlu2

T1 sequence (P31421 19-872): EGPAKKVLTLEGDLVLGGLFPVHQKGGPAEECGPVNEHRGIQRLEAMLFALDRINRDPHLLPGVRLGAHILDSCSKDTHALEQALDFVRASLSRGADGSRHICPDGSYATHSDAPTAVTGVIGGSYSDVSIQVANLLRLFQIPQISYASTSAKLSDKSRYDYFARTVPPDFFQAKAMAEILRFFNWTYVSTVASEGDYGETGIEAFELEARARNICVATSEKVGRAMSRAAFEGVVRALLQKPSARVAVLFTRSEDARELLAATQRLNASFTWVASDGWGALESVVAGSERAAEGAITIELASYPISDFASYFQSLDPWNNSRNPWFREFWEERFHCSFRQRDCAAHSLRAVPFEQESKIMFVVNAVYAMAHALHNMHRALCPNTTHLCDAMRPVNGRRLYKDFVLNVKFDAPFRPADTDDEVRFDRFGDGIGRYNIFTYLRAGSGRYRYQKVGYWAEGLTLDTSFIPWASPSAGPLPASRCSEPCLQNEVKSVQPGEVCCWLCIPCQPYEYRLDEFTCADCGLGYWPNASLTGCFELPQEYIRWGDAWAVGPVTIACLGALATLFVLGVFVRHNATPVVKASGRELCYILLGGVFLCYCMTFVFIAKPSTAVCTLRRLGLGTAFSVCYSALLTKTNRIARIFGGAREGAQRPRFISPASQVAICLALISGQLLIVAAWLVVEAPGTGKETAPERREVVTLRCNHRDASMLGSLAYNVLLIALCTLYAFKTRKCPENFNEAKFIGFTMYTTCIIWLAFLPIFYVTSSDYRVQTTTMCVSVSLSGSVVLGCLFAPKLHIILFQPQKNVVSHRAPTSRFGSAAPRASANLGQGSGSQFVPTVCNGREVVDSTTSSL

Row | SMILES | melting point | pKi (rat mGlu2 receptor; [1]) | pKi (rat mGlu2 receptor)
1 | Cc1ccc(-c2cccc(C3=Nc4ccc(-c5ccccc5F)cc4NC(=O)C3)c2)cn1 [Example 12, 8-(2-Fluoro-phenyl)-4-[3-(6-methyl-pyridin-3-yl)-phenyl]-1,3-dihydro-benzo[b][1,4]diazepin-2-one] | 206 to 209 °C | 8.41 | 
2 | O=C1CC(c2cccc(-c3ccncc3)c2)=Nc2cc(OCC(F)(F)F)c(C(F)(F)F)cc2N1 [Example 37, 4-(3-Pyridin-4-yl-phenyl)-7-(2,2,2-trifluoro-ethoxy)-8-trifluoromethyl-1,3-dihydro-benzo[b][1,4]diazepin-2-one] | 221 to 222 °C (dec.) | 8.81 | 
3 | Cc1cc(C2CC2)ncc1-c1cccc(C2=Nc3cc(C)c(C(F)(F)F)cc3NC(=O)C2)c1 [Example 246, 4-[3-(6-Cyclopropyl-4-methyl-pyridin-3-yl)-phenyl]-7-methyl-8-trifluoromethyl-1,3-dihydro-benzo[b][1,4]diazepin-2-one] | 195 °C | 7.77 | 
4 | Cc1cc2c(cc1C(F)(F)F)NC(=O)CC(c1cccc(-c3cnccn3)c1)=N2 [Example 87, 7-Methyl-4-(3-pyrazin-2-yl-phenyl)-8-trifluoromethyl-1,3-dihydro-benzo[b][1,4]diazepin-2-one] | 237 °C | 8.00 | 
5 | COCCNc1nc(C)cc(-c2cccc(C3=Nc4cc(N(C)C)c(C(F)(F)F)cc4NC(=O)C3)c2)n1 [Example 326, 7-Dimethylamino-4-{3-[2-(2-methoxy-ethylamino)-6-methyl-pyrimidin-4-yl]-phenyl}-8-trifluoromethyl-1,3-dihydro-benzo[b][1,4]diazepin-2-one] | 200 to 203 °C | 8.10 | 
6 | O=C1CC(c2cccc(-c3ccnc(N4CCCC4)c3)c2)=Nc2cc(OCC(F)(F)F)c(C(F)(F)F)cc2N1 [Example 391, 4-[3-(2-Pyrrolidin-1-yl-pyridin-4-yl)-phenyl]-7-(2,2,2-trifluoro-ethoxy)-8-trifluoromethyl-1,3-dihydro-benzo[b][1,4]diazepin-2-one] | 165 °C | 8.10 | 
7 | Cc1nccc(-c2cccc(C3=Nc4cc(N(C)C)c(C(F)(F)F)cc4NC(=O)C3)c2)n1 [Example 303, 7-Dimethylamino-4-[3-(2-methyl-pyrimidin-4-yl)-phenyl]-8-trifluoromethyl-1,3-dihydro-benzo[b][1,4]diazepin-2-one] | 211 to 212 °C | 7.35 | 
8 | Cc1cc(-c2cccc(C3=Nc4cc(N(C)C)c(C(F)(F)F)cc4NC(=O)C3)c2)ccn1 [Example 78, 7-Dimethylamino-4-[3-(2-methyl-pyridin-4-yl)-phenyl]-8-trifluoromethyl-1,3-dihydro benzo[b][1,4]diazepin-2-one] | 225 °C | 8.89 | 
9 | Cc1cccc(-c2cccc(C3=Nc4cc(N(C)C)c(C(F)(F)F)cc4NC(=O)C3)c2)n1 [Example 160, 7-Dimethylamino-4-[3-(6-methyl-pyridin-2-yl)-phenyl]-8-trifluoromethyl-1,3-dihydro-benzo[b][1,4]diazepin-2-one] | 195 °C | 7.73 | 
10 | Cc1ccc(-c2cccc(C3=Nc4ccc(C(F)(F)F)cc4NC(=O)C3)c2)cn1 [Example 9, 4-[3-(6-Methyl-pyridin-3-yl)-phenyl]-8-trifluoromethyl-1,3-dihydro-benzo[b][1,4]diazepin-2-one] | 215 to 218 °C | 8.26 | 
11 | CCCN(C)c1cc2c(cc1C(F)(F)F)NC(=O)CC(c1cccc(-c3ccnc(C)c3)c1)=N2 [Example 80, 7-(Methyl-propyl-amino)-4-[3-(2-methyl-pyridin-4-yl)-phenyl]-8-trifluoromethyl-1,3-dihydro benzo[b][1,4]diazepin-2-one] | 192 °C | 8.26 | 
12 | Cc1cc(-c2cccc(C3=Nc4cc(Cl)c(Cl)cc4NC(=O)C3)c2)cc(C)[n+]1[O-] [Example 376, 7,8-Dichloro-4-[3-(2,6-dimethyl-1-oxy-pyridin-4-yl)-phenyl]-1,3-dihydro-benzo[b][1,4]diazepin-2-one] | 225 °C | 7.78 | 
13 | Cc1cc2c(cc1C(F)(F)F)NC(=O)CC(c1cccc(-c3ccnc(N4CCOCC4)c3)c1)=N2 [Example 387, 7-Methyl-4-[3-(2-morpholin-4-yl-pyridin-4-yl)-phenyl]-8-trifluoromethyl-1,3-dihydro-benzo[b][1,4]diazepin-2-one] | 240 to 242 °C |  | 7.84
14 | O=C1CC(c2cccc(-c3cccnc3)c2)=Nc2ccc(OCC(F)(F)F)cc2N1 [Example 197, 4-(3-Pyridin-3-yl-phenyl)-8-(2,2,2-trifluoro-ethoxy)-1,3-dihydro-benzo[b][1,4]diazepin-2-one] | 156 °C | 8.00 | 
15 | Cc1cc2c(cc1Cl)NC(=O)CC(c1cccc(-c3cncnc3)c1)=N2 [Example 104, 8-Chloro-7-methyl-4-(3-pyrimidin-5-yl-phenyl)-1,3-dihydro-benzo[b][1,4]diazepin-2-one] | 248 °C | 8.10 | 
16 | Cc1cc(-c2cccc(C3=Nc4cc(N(C)CC(C)C)c(Cl)cc4NC(=O)C3)c2)cc(C)n1 [Example 410, 8-Chloro-4-[3-(2,6-dimethyl-pyridin-4-yl)-phenyl]-7-(isobutyl-methyl-amino)-1,3-dihydro-benzo[b][1,4]diazepin-2-one] | 229 °C | 8.49 | 
17 | O=C1CC(c2cccc(-c3ccncc3)c2)=Nc2cc(Cl)c(Cl)cc2N1 [Example 2, 7,8-Dichloro-4-(3-pyridin-4-yl-phenyl)-1,3-dihydro-benzo[b][1,4]diazepin-2-one] | 240 °C | 8.47 | 
18 | Cc1ncccc1-c1cccc(C2=Nc3cc(N(C)C)c(C(F)(F)F)cc3NC(=O)C2)c1 [Example 13, 7-Dimethylamino-4-[3-(2-methyl-pyridin-3-yl)-phenyl]-8-trifluoromethyl-1,3-dihydro-benzo[b][1,4]diazepin-2-one] | 229 to 230 °C | 8.22 | 
19 | COc1cc2c(cc1C(F)(F)F)NC(=O)CC(c1cccc(-c3ccccn3)c1)=N2 [Example 42, 7-Methoxy-4-(3-pyridin-2-yl-phenyl)-8-trifluoromethyl-1,3-dihydro-benzo[b][1,4]diazepin-2-one] | 240 °C | 7.57 | 

Reference: patent US6949542B2, “Dihydro-benzo[b][1,4]diazepin-2-one derivatives” (Hoffman-La Roche Inc., priority 2002, dated 2005)
